Experimental data reported in patent publication US4006251A, “Bactericidal and fungicidal composition containing thiocarbanyl sulfenamides” (The B. F. Goodrich Company, priority 1973, dated 1977).
In brackets after ≈: the same amount, converted by molar mass. Like-named read-outs stand apart in the source and are kept apart here.

Columns and labels:
[1] = system: various infectious organisms; assay: Activity against organisms, overall (Agar Screening Test and/or Penicillin Button Assay Test); assay type: cell-based; settings: organisms (a) to (d)
From the text: A. Agar Screening Test for Activity.
B. Penicillin Button Assay Test.

[2] = Storage stability test, purity by titration before and after aging; assay type: physicochemical; settings: for Percent Purity, after aging: air oven, closed bottles
Description: (§1) D. Storage Stability Tests.
Thiocarbamylsulfenamide compounds were tested for their stability upon storage at room temperature and after mild thermal aging. The principle test employed consisted of measuring the purity of a sample before and after aging. This was done by titrating a sample solution of the compound using potassium iodide, KI, and sodium thiosulfate, Na2 S2 O3. A 0.5 to 1.0 gram sample of the compound is weighed out and dissolved in 10 milliliters of chloroform. […] The calculations are: [formula] The value obtained is the percent by weight of the sample that is the desired thiocarbamylsulfenamide. The titration is run on the sample before and after aging. The change in purity of the compound indicates its decomposition upon storage.
(§2) This is important if the compounds are going to be used in disinfectant solutions, and stored and marked without a significant loss in activity against organisms. […] The compounds were aged in an air oven, while in closed bottles. The test methods used were previously described.

[3] = Acute inhalation toxicity test; assay type: in vivo, rats; settings: rat, in vivo, inhaled or intranasal; rats, inhalation
Description: (§3) The thiocarbamylsulfenamide compounds were also evaluated as to their oral, dermal, and inhalation toxicity. The techniques employed are specified in Section 362.116 of the Regulations for the Enforcement of the Federal Insecticide, Fungicide, and Rodenticide Act, Interpretation 18 (Revised, Federal Register, April 4, 1969), or in the Federal Hazardous Substances Act. (Revised, Federal Register, September 17, 1964). Acute oral LD50, acute dermal LD50, and acute inhalation LC50 were determined; LD50 being the lethal dose for 50% of the test animals and LC50 being the lethal concentration for 50% of the test animals. Acute oral and acute inhalation tests were run using rats, while acute dermal testing was run using rabbits.
(§4) Two of the compounds evaluated for their activity against organisms (compounds A and G respectively in Example V) were tested for their toxicity following the procedure previously given in the specification.

rats = assay: Acute inhalation toxicity test; assay type: in vivo; settings: classification according to federal regulations
Description: as §3, §4

[4] = Storage stability test, melting point, appearance and odor before and after aging; assay type: physicochemical; settings: for Melting point, after aging: air oven, closed bottles
Description: as §1
In addition to the titration test, other tests were run. The melting point of the compound was measured both before and after aging. Little or no change in melting point indicates good storage stability. Further, observations were made upon the appearance and odor of the compounds before and after aging.
as §2

rabbits = assay: Acute dermal toxicity test; assay type: in vivo; settings: classification according to federal regulations
Description: as §3, §4

[5] = Acute dermal toxicity test; assay type: in vivo, rabbits; settings: rabbit, in vivo, topical or ocular; rabbits, dermal
Description: as §3, §4

Acute oral toxicity test = settings: rat, in vivo, rats
Description: as §3, §4

[6] = system: various infectious organisms; settings: U.S. Pat. No. 2,692,862; cited from earlier work
[7] = before aging, sample for 50 °C, 10 days
[8] = before aging, sample for 80 °C, 16 hrs.

CCCCN(CCCC)C(=S)SN(C1CCCCC1)C1CCCCC1 [C, N,N-dibutylthiocarbamyl-N',N'-dicyclohexylsulfenamide]
activity against organisms (in words) [1]: no activity

CN(C)C(=S)SN(C1CCCCC1)C1CCCCC1 [Compound A, N,N-dimethylthiocarbamyl-N',N'-dicyclohexylsulfenamide]
activity against organisms (in words) [1]: good activity against organisms
Percent Purity, after aging ([2]; after aging, 50 °C, 10 days): 99%
Percent Purity, after aging ([2]; after aging, 80 °C, 16 hrs.): 97%
Percent Purity, before aging [2, 7]: 99%
Percent Purity, before aging [2, 8]: 100%
LC50 [3]: 78 µg/mL (≈ 260 µM)
toxicity by inhalation (in words) (rats): non-toxic
Amine odor, after aging ([4]; 50 °C, 10 days): slight
Melting point, after aging ([4]; 50 °C, 10 days): 85-87 °C
Amine odor, after aging ([4]; 80 °C, 16 hrs.): slight
Color, after aging ([4]; 80 °C, 16 hrs.): white
Melting point, after aging ([4]; 80 °C, 16 hrs.): 83-85 °C
Amine odor, before aging ([4]; sample for 50 °C, 10 days): slight
Color, before aging ([4]; sample for 50 °C, 10 days): white
Melting point, before aging ([4]; sample for 50 °C, 10 days): 85-87 °C
Amine odor, before aging ([4]; sample for 80 °C, 16 hrs.): slight
Color, before aging ([4]; sample for 80 °C, 16 hrs.): white
Melting point, before aging ([4]; sample for 80 °C, 16 hrs.): 84-85 °C
toxicity by dermal absorption (in words) (rabbits): non-toxic
LD50 [5]: > 10000 mg/kg
LD50 (Acute oral toxicity test): 1100 mg/kg

CCN(CC)C(=S)SN(C1CCCCC1)C1CCCCC1 [Compound B, N,N-diethylthiocarbamyl-N',N'-dicyclohexylsulfenamide]
activity against organisms (in words) [1]: good activity

S=C(SN1CCOCC1)N1CCOCC1 [Compound G, N-oxydiethylenethiocarbamyl-N'-oxydiethylenesulfenamide]
activity against organisms (in words) [1]: good activity against organisms
Percent Purity, before aging [2]: 98
Percent Purity, after aging ([2]; 16 h): 98
LC50 [3]: 164 µg/mL (≈ 660 µM)
toxicity by inhalation (in words) (rats): non-toxic
Amine odor, after aging ([4]; 80 °C, 16 hrs.): slight
Melting point, after aging ([4]; 80 °C, 16 hrs.): 135-139 °C
Amine odor, before aging ([4]; sample for 80 °C, 16 hrs.): slight
Color, before aging ([4]; sample for 80 °C, 16 hrs.): white
Melting point, before aging ([4]; sample for 80 °C, 16 hrs.): 136-139 °C
toxicity by dermal absorption (in words) (rabbits): non-toxic
LD50 [5]: > 10000 mg/kg
LD50 (Acute oral toxicity test): 5100 mg/kg

CN(C)C(=S)SNc1ccccc1 [Compound H, N,N-dimethylthiocarbamyl-N'-phenylsulfenamide]
activity against organisms (in words) [1]: good activity

CCCCCCCCCCCCCCCCCCCCN(CCCCCCCCCCCCCCCCCCCC)C(=S)SN(C1CCCCC1)C1CCCCC1 [D, N,N-dieicosylthiocarbamyl-N',N'-dicyclohexylsulfenamide]
activity against organisms (in words) [1]: no activity

S=C(SN(C1CCCCC1)C1CCCCC1)N1CCOCC1 [E, N-oxydiethylenethiocarbamyl-N',N'-dicyclohexylsulfenamide]
activity against organisms (in words) [1]: almost no activity

CCN(CC)C(=S)SNc1ccccc1 [I, N,N-diethylthiocarbamyl-N'-phenylsulfenamide]
activity against organisms (in words) [1]: very little activity

CN(C)SC(=S)N(C)C [J, N,N-dimethylthiocarbamyl-N',N'-dimethylsulfenamide, reference compound]
Percent Purity, after aging ([2]; after aging, 50 °C, 10 days): 77%
Percent Purity, before aging [2, 7]: 96%
Amine odor, after aging ([4]; 50 °C, 10 days): strong
Color, after aging ([4]; 50 °C, 10 days): yellow
Melting point, after aging ([4]; 50 °C, 10 days): 34-39 °C
Amine odor, before aging ([4]; sample for 50 °C, 10 days): slight
Melting point, before aging ([4]; sample for 50 °C, 10 days): 49-51 °C
known activity against organisms (in words) [6]: known to have activity against organisms

CC(C)N(SC(=S)N(C)C)C(C)C [K, N,N-dimethylthiocarbamyl-N',N'-diisopropylsulfenamide, reference compound]
Percent Purity, after aging ([2]; after aging, 80 °C, 16 hrs.): 89%
Percent Purity, before aging [2, 8]: 93%
Amine odor, after aging ([4]; 80 °C, 16 hrs.): strong
Melting point, after aging ([4]; 80 °C, 16 hrs.): 53-54 °C
Amine odor, before aging ([4]; sample for 80 °C, 16 hrs.): mild
Color, before aging ([4]; sample for 80 °C, 16 hrs.): white
Melting point, before aging ([4]; sample for 80 °C, 16 hrs.): 56-57 °C
known activity against organisms (in words) [6]: known to have activity against organisms
